# Tests used:
# late watergrass = assay: Test Example 1: herbicidal activity, application before weed generation under submerged conditions (Table 16, symbol A); format: in vivo, late watergrass (Echinochloa oryzicola); conditions: 320 g/ha applied herbicide
# Summary of the method: (§1)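 Emulsion formulation, water-diluted to set dose, was put onto the flooded surface (4 cm depth, alluvial soil) the same day weeds were sown and 2.5-leaf rice transplanted. After 3 weeks at 25-30 °C under glass, each species was rated 0 (≤5% kill) to 5 (≥90% kill).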
# Japanese bulrush = assay: Test Example 1: herbicidal activity, application before weed generation under submerged conditions (Table 16, symbol B); format: in vivo, Japanese bulrush (Schoenoplectus juncoides); conditions: 320 g/ha applied herbicide
# Summary of the method: as §1
# oval-leafed pondweed = assay: Test Example 1: herbicidal activity, application before weed generation under submerged conditions (Table 16, symbol C); format: in vivo, oval-leafed pondweed (Monochoria vaginalis); conditions: 320 g/ha applied herbicide
# Summary of the method: as §1
# barnyard grass [1] = assay: Test Example 3: herbicidal effect by foliage application, Wagner pot (Table 18, symbol H); format: in vivo, barnyard grass (Echinochloa crus-galli); conditions: amount of applied herbicide 320 g/ha
# Summary of the method: (§2)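 Plants were sown in alluvial soil held under 0.1–0.5 cm standing water and grown 14 days in a greenhouse at 25–30 °C. An emulsifiable formulation, water-diluted to the set dose, was then sprayed onto the foliage, and effects were scored three weeks later using previously defined criteria.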
# Chinese sprangletop = assay: Test Example 3: herbicidal effect by foliage application, Wagner pot (Table 18, symbol D); format: in vivo, chinese sprangletop (Leptochloa chinensis); conditions: amount of applied herbicide 320 g/ha
# Summary of the method: as §2
# rice flat sedge = assay: Test Example 3: herbicidal effect by foliage application, Wagner pot (Table 18, symbol E); format: in vivo, rice flat sedge (Cyperus iria); conditions: amount of applied herbicide 320 g/ha
# Summary of the method: as §2
# southern crabgrass [2] = assay: Test Example 4: herbicidal effect by soil treatment (Table 19, symbol F); format: in vivo, southern crabgrass (Digitaria ciliaris); conditions: amount of applied herbicide 320 g/ha
# Summary of the method: (§3)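 Scoring uses the grading scale of an earlier test, three weeks post-application. Treatment consists of spraying a diluted emulsion formulation across the surface of sterilized diluvial soil in which seeds are buried near 1.5 cm deep; boxes are kept in a greenhouse between 25° C. and 30° C.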
# green foxtail [3] = assay: Test Example 4: herbicidal effect by soil treatment (Table 19, symbol G); format: in vivo, green foxtail (Setaria viridis); conditions: amount of applied herbicide 320 g/ha
# Summary of the method: as §3
# barnyard grass [4] = assay: Test Example 4: herbicidal effect by soil treatment (Table 19, symbol H); format: in vivo, barnyard grass (Echinochloa crus-galli); conditions: amount of applied herbicide 320 g/ha
# Summary of the method: as §3
# wild oat [5] = assay: Test Example 4: herbicidal effect by soil treatment (Table 19, symbol I); format: in vivo, wild oat (Avena fatua); conditions: amount of applied herbicide 320 g/ha
# Summary of the method: as §3
# blackgrass [6] = assay: Test Example 4: herbicidal effect by soil treatment (Table 19, symbol J); format: in vivo, blackgrass (Alopecurus myosuroides); conditions: amount of applied herbicide 320 g/ha
# Summary of the method: as §3
# Italian ryegrass [7] = assay: Test Example 4: herbicidal effect by soil treatment (Table 19, symbol K); format: in vivo, Italian ryegrass (Lolium multiflorum); conditions: amount of applied herbicide 320 g/ha
# Summary of the method: as §3
# windgrass [8] = assay: Test Example 4: herbicidal effect by soil treatment (Table 19, symbol L); format: in vivo, windgrass (Apera spica-venti); conditions: amount of applied herbicide 320 g/ha
# Summary of the method: as §3
# velvetleaf [9] = assay: Test Example 4: herbicidal effect by soil treatment (Table 19, symbol M); format: in vivo, velvetleaf (Abutilon theophrasti); conditions: amount of applied herbicide 320 g/ha
# Summary of the method: as §3
# redroot pigweed [10] = assay: Test Example 4: herbicidal effect by soil treatment (Table 19, symbol N); format: in vivo, redroot pigweed (Amaranthus retroflexus); conditions: amount of applied herbicide 320 g/ha
# Summary of the method: as §3
# lambsquarters [11] = assay: Test Example 4: herbicidal effect by soil treatment (Table 19, symbol O); format: in vivo, lambsquarters (Chenopodium album); conditions: amount of applied herbicide 320 g/ha
# Summary of the method: as §3
# chickweed [12] = assay: Test Example 4: herbicidal effect by soil treatment (Table 19, symbol P); format: in vivo, common chickweed (Stellaria media); conditions: amount of applied herbicide 320 g/ha
# Summary of the method: as §3
# false cleavers = assay: Test Example 4: herbicidal effect by soil treatment (Table 19, symbol Q); format: in vivo, false cleavers (Galium spurium); conditions: amount of applied herbicide 320 g/ha
# Summary of the method: as §3
# persian speedwell [13] = assay: Test Example 4: herbicidal effect by soil treatment (Table 19, symbol R); format: in vivo, Persian speedwell (Veronica persica); conditions: amount of applied herbicide 320 g/ha
# Summary of the method: as §3
# southern crabgrass [14] = assay: Test Example 5: herbicidal effect by foliage application, plastic box (Table 20, symbol F); format: in vivo, southern crabgrass (Digitaria ciliaris); conditions: foliage application, AAH 320 g/ha, evaluated three weeks after application
# Summary of the method: (§4)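 Post-emergence foliar test in sterilized diluvial soil. Compound applied as water-diluted emulsion at a predetermined rate to 14-day-old plants; evaluation at three weeks.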
# green foxtail [15] = assay: Test Example 5: herbicidal effect by foliage application, plastic box (Table 20, symbol G); format: in vivo, green foxtail (Setaria viridis); conditions: foliage application, AAH 320 g/ha, evaluated three weeks after application
# Summary of the method: as §4
# barnyard grass [16] = assay: Test Example 5: herbicidal effect by foliage application, plastic box (Table 20, symbol H); format: in vivo, barnyard grass (Echinochloa crus-galli); conditions: foliage application, AAH 320 g/ha, evaluated three weeks after application
# Summary of the method: as §4
# wild oat [17] = assay: Test Example 5: herbicidal effect by foliage application, plastic box (Table 20, symbol I); format: in vivo, wild oat (Avena fatua); conditions: foliage application, AAH 320 g/ha, evaluated three weeks after application
# Summary of the method: as §4
# blackgrass [18] = assay: Test Example 5: herbicidal effect by foliage application, plastic box (Table 20, symbol J); format: in vivo, blackgrass (Alopecurus myosuroides); conditions: foliage application, AAH 320 g/ha, evaluated three weeks after application
# Summary of the method: as §4
# Italian ryegrass [19] = assay: Test Example 5: herbicidal effect by foliage application, plastic box (Table 20, symbol K); format: in vivo, Italian ryegrass (Lolium multiflorum); conditions: foliage application, AAH 320 g/ha, evaluated three weeks after application
# Summary of the method: as §4
# windgrass [20] = assay: Test Example 5: herbicidal effect by foliage application, plastic box (Table 20, symbol L); format: in vivo, windgrass (Apera spica-venti); conditions: foliage application, AAH 320 g/ha, evaluated three weeks after application
# Summary of the method: as §4
# velvetleaf [21] = assay: Test Example 5: herbicidal effect by foliage application, plastic box (Table 20, symbol M); format: in vivo, velvetleaf (Abutilon theophrasti); conditions: foliage application, AAH 320 g/ha, evaluated three weeks after application
# Summary of the method: as §4
# redroot pigweed [22] = assay: Test Example 5: herbicidal effect by foliage application, plastic box (Table 20, symbol N); format: in vivo, redroot pigweed (Amaranthus retroflexus); conditions: foliage application, AAH 320 g/ha, evaluated three weeks after application
# Summary of the method: as §4
# lambsquarters [23] = assay: Test Example 5: herbicidal effect by foliage application, plastic box (Table 20, symbol O); format: in vivo, lambsquarters (Chenopodium album); conditions: foliage application, AAH 320 g/ha, evaluated three weeks after application
# Summary of the method: as §4
# chickweed [24] = assay: Test Example 5: herbicidal effect by foliage application, plastic box (Table 20, symbol P); format: in vivo, common chickweed (Stellaria media); conditions: foliage application, AAH 320 g/ha, evaluated three weeks after application
# Summary of the method: as §4
# persian speedwell [25] = assay: Test Example 5: herbicidal effect by foliage application, plastic box (Table 20, symbol R); format: in vivo, Persian speedwell (Veronica persica); conditions: foliage application, AAH 320 g/ha, evaluated three weeks after application
# Summary of the method: as §4
smiles,measurement,setting,value
COCCOCOc1c(C)nn(C)c(=O)c1-c1c(-c2ccc(OC(F)F)cc2)sc2ccc(F)cc12 [2-307],Herbicidal effect on A: late watergrass (grade 0-5),late watergrass,0 (Herbicidal rate of 5% or less (almost no effect))
same,Herbicidal effect on B: Japanese bulrush (grade 0-5),Japanese bulrush,3 (Herbicidal rate of 40% or more and less than 70%)
same,Herbicidal effect on C: oval-leafed pondweed (grade 0-5),oval-leafed pondweed,0 (Herbicidal rate of 5% or less (almost no effect))
same,herbicidal effect on H: barnyard grass,barnyard grass [1],5 (Herbicidal rate of 90% or more (almost completely withered))
same,herbicidal effect on D: Chinese sprangletop,Chinese sprangletop,5 (Herbicidal rate of 90% or more (almost completely withered))
same,herbicidal effect on E: rice flat sedge,rice flat sedge,4 (Herbicidal rate of 70% or more and less than 90%)
same,herbicidal effect on F: southern crabgrass,southern crabgrass [2],4 (Herbicidal rate of 70% or more and less than 90%)
same,herbicidal effect on G: green foxtail,green foxtail [3],4 (Herbicidal rate of 70% or more and less than 90%)
same,herbicidal effect on H: barnyard grass,barnyard grass [4],3 (Herbicidal rate of 40% or more and less than 70%)
same,herbicidal effect on I: wild oat,wild oat [5],0 (Herbicidal rate of 5% or less (almost no effect))
same,herbicidal effect on J: blackgrass,blackgrass [6],2 (Herbicidal rate of 20% or more and less than 40%)
same,herbicidal effect on K: Italian ryegrass,Italian ryegrass [7],1 (Herbicidal rate of 5% or more and less than 20%)
same,herbicidal effect on L: windgrass,windgrass [8],0 (Herbicidal rate of 5% or less (almost no effect))
same,herbicidal effect on M: velvetleaf,velvetleaf [9],0 (Herbicidal rate of 5% or less (almost no effect))
same,herbicidal effect on N: redroot pigweed,redroot pigweed [10],5 (Herbicidal rate of 90% or more (almost completely withered))
same,herbicidal effect on O: lambsquarters,lambsquarters [11],5 (Herbicidal rate of 90% or more (almost completely withered))
same,herbicidal effect on P: chickweed,chickweed [12],3 (Herbicidal rate of 40% or more and less than 70%)
same,herbicidal effect on Q: false cleavers,false cleavers,0 (Herbicidal rate of 5% or less (almost no effect))
same,herbicidal effect on R: persian speedwell,persian speedwell [13],5 (Herbicidal rate of 90% or more (almost completely withered))
same,"F: southern crabgrass, herbicidal effect (criteria 0-5)",southern crabgrass [14],2 (Herbicidal rate of 20% or more and less than 40%)
same,"G: green foxtail, herbicidal effect (criteria 0-5)",green foxtail [15],5 (Herbicidal rate of 90% or more (almost completely withered))
same,"H: barnyard grass, herbicidal effect (criteria 0-5)",barnyard grass [16],5 (Herbicidal rate of 90% or more (almost completely withered))
same,"I: wild oat, herbicidal effect (criteria 0-5)",wild oat [17],3 (Herbicidal rate of 40% or more and less than 70%)
same,"J: blackgrass, herbicidal effect (criteria 0-5)",blackgrass [18],4 (Herbicidal rate of 70% or more and less than 90%)
same,"K: Italian ryegrass, herbicidal effect (criteria 0-5)",Italian ryegrass [19],5 (Herbicidal rate of 90% or more (almost completely withered))
same,"L: windgrass, herbicidal effect (criteria 0-5)",windgrass [20],3 (Herbicidal rate of 40% or more and less than 70%)
same,"M: velvetleaf, herbicidal effect (criteria 0-5)",velvetleaf [21],5 (Herbicidal rate of 90% or more (almost completely withered))
same,"N: redroot pigweed, herbicidal effect (criteria 0-5)",redroot pigweed [22],5 (Herbicidal rate of 90% or more (almost completely withered))
same,"O: lambsquarters, herbicidal effect (criteria 0-5)",lambsquarters [23],5 (Herbicidal rate of 90% or more (almost completely withered))
same,"P: chickweed, herbicidal effect (criteria 0-5)",chickweed [24],5 (Herbicidal rate of 90% or more (almost completely withered))
same,"R: persian speedwell, herbicidal effect (criteria 0-5)",persian speedwell [25],5 (Herbicidal rate of 90% or more (almost completely withered))

# From patent US20230085307A1, “PYRIDAZINONE COMPOUND AND HERBICIDE” (NISSAN CHEMICAL CORPORATION, priority 2019, published 2023)
